According to patent US20230083973A1, “SUBSTITUTED CYCLOPROPYL-2,2'-BIP[…], ANALOGUES THEREOF, AND METHODS USING SAME” (priority 2019, published 2023):
pEC50: −log10 of the molar value. Read-outs that look alike come from different tables or passages of the source.

Tested on: HBsAg
Assay: HBsAg assay: inhibition of HBsAg in HepG2.2.15 cells (chemiluminescence immunoassay of supernatant)
Assay type: cell-based, hepatitis B virus
Conditions: HBsAg in supernatant at day 6 after exposure to compound, 0.5% DMSO
Outline: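 HepG2.2.15 cells treated with serially diluted compounds (0.5% DMSO), medium and compound refreshed after 2–3 days, supernatant harvested at day 6. Secreted HBsAg measured by chemiluminescence immunoassay; EC50 from dose-response curves, with parallel CellTiter-Glo viability at 5,000 cells/well.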

[1] = Hepatitis B virus, HepG2.2.15, 144 h, read-out: sAg EC50, HepG2.2.15 cells
[2] = read-out: sAg EC50, HepG2.2.15 cells

Row | Structure (SMILES) | pEC50 [1] | pEC50 [2]
1 | COCCCn1ncc2c([C@@H]3C[C@H]3c3cnc(-c4ncccn4)nc3)cc(F)c(F)c21 (relative stereo) [Example 264, trans-4-(2-([2,2′-Bipyrimidin]-5-yl)cyclopropyl)-6,7-difluoro-1-(3-methoxypropyl)-1H-indazole] | 8.40 | –
2 | Fc1ccc(C2CC2c2cnc(-c3ncccn3)nc2)cc1N1CCC(F)(F)C1 (single isomer, unassigned) [Example 43, trans-5-(2-(3-(3,3-Difluoropyrrolidin-1-yl)-4-fluorophenyl)cyclopropyl)-2,2′-bipyrimidine] | – | 6.60
3 | Fc1ccc(C2CC2c2cnc(-c3ncccn3)nc2)cc1N1CCCCC1 (single isomer, unassigned) [Example 196, trans-5-(2-(4-Fluoro-3-(piperidin-1-yl)phenyl)cyclopropyl)-2,2′-bipyrimidine] | – | 6.68
4 | COc1cnn(-c2cc(C3CC3c3cnc(-c4ncccn4)nc3)cc(F)c2F)c1 (single isomer, unassigned) [Example 251, trans-5-(2-(3,4-Difluoro-5-(4-methoxy-1H-pyrazol-1-yl)phenyl)cyclopropyl)-2,2′-bipyrimidine] | – | 7.39
5 | COc1cc(C2CC2c2cnc(-c3ncccn3)nc2)cc(OC)c1Cl (single isomer, unassigned) [Example 99, trans-5-(2-(4-Chloro-3,5-dimethoxyphenyl)cyclopropyl)-2,2′-bipyrimidine] | – | 5.52
6 | COc1ccc(C2CC2c2cnc(-c3ncccn3)nc2)c(F)c1 (single isomer, unassigned) [Example 3, trans-5-(2-(2-Fluoro-4-methoxyphenyl)cyclopropyl)-2,2′-bipyrimidine] | 6.72 | –
7 | Cc1cc(C2CC2c2cnc(-c3ncccn3)nc2)cc(OCC2CC2)c1Cl (single isomer, unassigned) [Example 50, trans-5-((2-(4-Chloro-3-(cyclopropylmethoxy)-5-methylphenyl)cyclopropyl)-2,2′-bipyrimidine] | – | 5.70
8 | Cn1ccc(COc2cc([C@@H]3C[C@H]3c3cnc(-c4ncccn4)nc3)cc(F)c2F)n1 (relative stereo) [Example 219, trans-5-(2-(3,4-Difluoro-5-((1-methyl-1H-pyrazol-3-yl)methoxy)phenyl)cyclopropyl)-2,2′-bipyrimidine] | 7.02 | –
9 | Cc1nc2cc([C@@H]3C[C@H]3c3cnc(-c4ncccn4)nc3)ccc2s1 (relative stereo) [Example 278, trans-5-(2-([2,2′-Bipyrimidin]-5-yl)cyclopropyl)-2-methylbenzo[d]thiazole] | 7.25 | –
10 | COC1CN(c2cc(C3CC3c3cnc(-c4ncccn4)nc3)ccc2F)C1 (single isomer, unassigned) [Example 47, trans-5-(2-(4-Fluoro-3-(3-methoxyazetidin-1-yl)phenyl)cyclopropyl)-2,2′-bipyrimidine] | – | 6.43
11 | CCc1cc(F)c(OC)cc1C1CC1c1cnc(-c2ncccn2)nc1 (single isomer, unassigned) [Example 36, trans-5-(2-(2-Ethyl-4-fluoro-5-methoxyphenyl)cyclopropyl)-2,2′-bipyrimidine] | – | 6.14
12 | Fc1cc(C2CC2c2cnc(-c3ncccn3)nc2)cc(OCC2CC2)c1F (single isomer, unassigned) [Example 129, trans-5-(2-(3-(Cyclopropylmethoxy)-4,5-difluorophenyl)cyclopropyl)-2,2′-bipyrimidine] | – | 7.74
13 | COCCCn1cnc2c(F)cc([C@@H]3C[C@H]3c3cnc(-c4ncccn4)nc3)cc21 (relative stereo) [Example 274, trans-6-(2-([2,2′-Bipyrimidin]-5-yl)cyclopropyl)-4-fluoro-1-(3-methoxypropyl)-1H-benzo[d]imidazole] | 7.19 | –
14 | CC(=O)Nc1cc(C2CC2c2cnc(-c3ncccn3)nc2)ccc1Cl (single isomer, unassigned) [Example 206, trans-N-(5-(2-([2,2′-Bipyrimidin]-5-yl)cyclopropyl)-2-chlorophenyl)acetamide] | – | 6.09
15 | COc1c(Cl)ccc(C2CC2c2cnc(-c3ncccn3)nc2)c1C (single isomer, unassigned) [Example 71, trans-5-(2-(4-Chloro-3-methoxy-2-methylphenyl)cyclopropyl)-2,2′-bipyrimidine] | – | 6.70
16 | COc1cc(C2CC2c2cnc(-c3ncccn3)nc2C(C)C)ccc1F (single isomer, unassigned) [Example 74, trans-5-(2-(4-Fluoro-3-methoxyphenyl)cyclopropyl)-4-isopropyl-2,2′-bipyrimidine] | – | 5.00
17 | CCc1nc(-c2ncccn2)ncc1C1CC1c1ccc(F)c(OC)c1 (single isomer, unassigned) [Example 77, trans-4-Ethyl-5-(2-(4-fluoro-3-methoxyphenyl)cyclopropyl)-2,2′-bipyrimidine] | – | 5.30
18 | COc1cc(C2CC2c2cnc(-c3ncccn3)nc2)c(C)cc1Cl (single isomer, unassigned) [Example 51, trans-5-(2-(4-Chloro-5-methoxy-2-methylphenyl)cyclopropyl)-2,2′-bipyrimidine] | – | 6.54
19 | COc1cc([C@@H]2C[C@H]2c2cnc(-c3ncccn3)nc2)cc(C(F)(F)F)c1F (relative stereo) [Example 165, trans-5-(2-(4-Fluoro-3-methoxy-5-(trifluoromethyl)phenyl)cyclopropyl)-2,2′-bipyrimidine] | 6.60 | –
20 | COc1ccc(C2CC2c2cnc(-c3ncccn3)nc2)cc1OC (single isomer, unassigned) [Example 32, trans-5-(2-(3,4-Dimethoxyphenyl)cyclopropyl)-2,2′-bipyrimidine] | – | 6.32
21 | COCCCOc1cc(C2CC2c2cnc(-c3ncccn3)nc2)cc(F)c1F (single isomer, unassigned) [Example 131, trans-5-(2-(3,4-Difluoro-5-(3-methoxypropoxy)phenyl)cyclopropyl)-2,2′-bipyrimidine] | – | 7.82
22 | Fc1ccc(C2CC2c2cnc(-c3ncccn3)nc2)cc1OC(F)F (single isomer, unassigned) [Example 186, trans-5-(2-(3-(Difluoromethoxy)-4-fluorophenyl)cyclopropyl)-2,2′-bipyrimidine] | – | 5.80
23 | COc1cc(C2CC2c2cnc(-c3ncccn3)nc2)cc(N2CCCC2)c1F (single isomer, unassigned) [Example 101, trans-5-(2-(4-Fluoro-3-methoxy-5-(pyrrolidin-1-yl)phenyl)cyclopropyl)-2,2′-bipyrimidine] | – | 6.10
24 | Fc1cn(-c2cc(C3CC3c3cnc(-c4ncccn4)nc3)cc(F)c2F)cc1F (single isomer, unassigned) [Example 257, trans-5-(2-(3-(3,4-Difluoro-1H-pyrrol-1-yl)-4,5-difluorophenyl)cyclopropyl)-2,2′-bipyrimidine] | – | 6.85
25 | Fc1ccc(C2CC2c2cnc(-c3ncccn3)nc2)cc1N1CCC1 (single isomer, unassigned) [Example 82, trans-5-(2-(3-(Azetidin-1-yl)-4-fluorophenyl)cyclopropyl)-2,2′-bipyrimidine] | – | 6.96
26 | Fc1cc(C2CC2c2cnc(-c3ncccn3)nc2)cc(N2CCCC2)c1Cl (single isomer, unassigned) [Example 91, trans-5-(2-(4-Chloro-3-fluoro-5-(pyrrolidin-1-yl)phenyl)cyclopropyl)-2,2′-bipyrimidine] | – | 7.85
